Reference: patent US8816085B2 (Takeda GmbH, priority 2009, dated 2014)

Each compound was assayed against T1, PDE5A1 (human PDE5 from platelets) (Homo sapiens, UniProt O76074) (assay: Inhibition of type 5 phosphodiesterase (PDE5) activity, modified SPA test). Details: PDE5-containing human platelet lysate, 0.5 μM cGMP, value classes, read-out: PDE5A1 inhibitory values [measured as −logIC50 (mol/l)] (converted).
T1 construct: from tissue; host or cells: platelets from fresh blood of human donors (10,000 g supernatant of sonified platelets)
Type: biochemical
Protocol: Method for Measuring Inhibition of the Type 5 Phosphodiesterase (PDE5) Activity:
As a source for human PDE5, platelets are used. For that purpose, 150 ml fresh blood from human donors anticoagulated with citrate [final concentration 0.3% (w/v)] is centrifuged at 200 g for 10 min to obtain the so-called platelet-rich-plasma (PRP) as a supernatant. 1/10 volume of ACD solution (85 mM Na3-citrate, 111 mM D-glucose, 71 mM citric acid, pH 4.4) is added to 9/10 volume of PRP. After centrifugation (1,400 g, 10 min) the cell pellet is resuspended in 3 ml homogenization buffer (NaCl 140 mM, KCl 3.8 mM, EGTA (ethylene glycol tetraacetic acid) 1 mM, MgCl2 1 mM, Tris-HCl 20 mM, beta-mercaptoethanol 1 mM, pH 8.2) plus protease-inhibitor mix giving rise to the final concentrations of 0.5 mM Pefablock (Roche), 10 μM Leupeptin, 5 μM Trypsininhibitor, 2 mM Benzamidin and 10 μM Pepstatin A. The suspension is sonified and thereafter centrifuged for 15 min at 10,000 g. The resulting supernatant (platelet lysate) is used for enzymatic testings.
PDE5A1 activity is inhibited by the compounds of the present subject matter in a modified SPA (scintillation proximity assay) test, supplied by Amersham Biosciences (see procedural instructions “phosphodiesterase [3H]cAMP SPA enzyme assay, code TRKQ 7090”), carried out in 96-well microtitre plates (MTP's). The test volume is 100 μl and contains 20 mM Tris buffer (pH 7.4), 0.1 mg of BSA (bovine serum albumin)/ml, 5 mM Mg^2+, 1 μM motapizone, 10 nM PDE2 inhibitor 2-(3,4-dimethoxybenzyl)-7-[(1R,2R)-2-hydroxy-1-(2-phenylethyl)propyl]-5-methylimidazo[5,1-t][1,2,4]triazin-4(3H)-one, 0.5 μM cGMP (cyclic guanosine monophosphate) (including about 50,000 cpm of [3H]cGMP as a tracer), 1 μl of the respective compound dilution in dimethylsulfoxide (DMSO) and sufficient PDE5-containing platelet lysat (10,000×g supernatant, see above) to ensure that 10-20 wt % of the cGMP is converted under the said experimental conditions. […] After a preincubation of 5 min at 37° C., the reaction is started by adding the substrate (cGMP) and the assay is incubated for a further 15 min; after that, it is stopped by adding SPA beads (50 μl). In accordance with the manufacturer's instructions, the SPA beads had previously been resuspended in water, but are then diluted 1:3 (v/v) in water; the diluted solution also contains 3 mM 8-methoxymethyl-3-isobutyl-1-methylxanthine (IBMX) to ensure a complete PDE activity stop. After the beads have been sedimented (>30 min), the MTP's are analyzed in commercially available luminescence detection devices. The corresponding IC50 values of the compounds for the inhibition of PDE activity are determined from the concentration-effect curves by means of non-linear regression.

Row | IC50 [nM] | Structure (SMILES)
1 | < 1 | COc1ccc(-c2ccnc3c(C(=O)N[C@H]4CC[C@@H](NC(=O)[C@H](C)O)CC4)c(C)[nH]c23)c(OCC2CC2)c1 [Example F25, 7-[2-(Cyclopropylmethoxy)-4-methoxyphenyl]-N-(cis-4-{[(2S)-2-hydroxypropanoyl]amino}cyclohexyl)-2-methyl-1H-pyrrolo[3,2-b]pyridine-3-carboxamide]
2 | < 1 | COc1ccc(OCC2CC2)c(-c2ccnc3c(C(=O)N[C@H]4CC[C@H](NC(=O)CO)CC4)c(C)[nH]c23)c1 [Example F28, 7-[2-(Cyclopropylmethoxy)-5-methoxyphenyl]-N-{trans-4-[(hydroxyacetyl)amino]cyclohexyl}-2-methyl-1H-pyrrolo[3,2-b]pyridine-3-carboxamide]
3 | < 1 | COc1cc(OCC2CC2)c(-c2ccnc3c(C(=O)NC4CCN(C(C)=O)CC4)c(C)[nH]c23)cc1F [Example E76, N-(1-Acetylpiperidin-4-yl)-7-[2-(cyclopropylmethoxy)-5-fluoro-4-methoxyphenyl]-2-methyl-1H-pyrrolo[3,2-b]pyridine-3-carboxamide]
4 | 1 to 10 | CC(=O)N1CC[C@@H](NC(=O)c2c(C)[nH]c3c(-c4cc(F)ccc4OCC4CC4)ccnc23)[C@H](O)C1 (relative stereo) [Example E28, N-[(3R*,4R*)-1-Acetyl-3-hydroxypiperidin-4-yl]-7-[2-(cyclopropylmethoxy)-5-fluorophenyl]-2-methyl-1H-pyrrolo[3,2-b]pyridine-3-carboxamide]
5 | < 1 | Cc1[nH]c2c(-c3ccc(F)cc3OCC3CC3)ccnc2c1C(=O)N[C@H]1CC[C@H](NC(=O)[C@H](C)O)CC1 [Example F09, 7-[2-(Cyclopropylmethoxy)-4-fluorophenyl]-N-(trans-4-{[(2S)-2-hydroxypropanoyl]amino}cyclohexyl)-2-methyl-1H-pyrrolo[3,2-b]pyridine-3-carboxamide]
6 | < 1 | CCC(=O)N1CCC(NC(=O)c2c(C)[nH]c3c(-c4ccc(OC)cc4OCC4CC4)ccnc23)CC1 [Example E32, 7-[2-(Cyclopropylmethoxy)-4-methoxyphenyl]-2-methyl-N-(1-propanoylpiperidin-4-yl)-1H-pyrrolo[3,2-b]pyridine-3-carboxamide]
7 | < 1 | COCC(=O)N[C@H]1CC[C@H](NC(=O)c2c(C)[nH]c3c(-c4ccc(F)cc4OCC4CC4)ccnc23)CC1 [Example E15, 7-[2-(Cyclopropylmethoxy)-4-fluorophenyl]-N-{trans-4-[(methoxyacetyl)amino]cyclohexyl}-2-methyl-1H-pyrrolo[3,2-b]pyridine-3-carboxamide]
8 | < 1 | COc1ccc(OCC2CC2)c(-c2ccnc3c(C(=O)N[C@H]4CC[C@@H](NC(=O)CO)CC4)c(C)[nH]c23)c1 [Example F30, 7-[2-(Cyclopropylmethoxy)-5-methoxyphenyl]-N-{cis-4-[(hydroxyacetyl)amino]cyclohexyl}-2-methyl-1H-pyrrolo[3,2-b]pyridine-3-carboxamide]
9 | 1 to 10 | CCC(=O)N[C@H]1CC[C@@H](NC(=O)c2c(C)[nH]c3c(-c4ccc(F)cc4OCC4CC4)ccnc23)CC1 [Example E17]
10 | 1 to 10 | CC(=O)N[C@H]1CC[C@H](NC(=O)c2c(C)[nH]c3c(-c4cc(C)ccc4OCC4CC4)ccnc23)CC1 [Example E55, N-[trans-4-(Acetylamino)cyclohexyl]-7-[2-(cyclopropylmethoxy)-5-methylphenyl]-2-methyl-1H-pyrrolo[3,2-b]pyridine-3-carboxamide]
11 | < 1 | CCOC(=O)N[C@H]1CC[C@@H](NC(=O)c2c(C)[nH]c3c(-c4c(OCC5CC5)ccc5c4OCO5)ccnc23)CC1 [Example E09, Ethyl {cis-4-[({7-[5-(cyclopropylmethoxy)-1,3-benzodioxol-4-yl]-2-methyl-1H-pyrrolo[3,2-b]pyridin-3-yl}carbonyl)amino]cyclohexyl}carbamate]
12 | < 1 | Cc1[nH]c2c(-c3cc(F)ccc3OCC3CC3)ccnc2c1C(=O)N[C@H]1CC[C@H](NC(=O)[C@H](C)O)CC1 [Example F15, 7-[2-(Cyclopropylmethoxy)-5-fluorophenyl]-N-(trans-4-{[(2S)-2-hydroxypropanoyl]amino}cyclohexyl)-2-methyl-1H-pyrrolo[3,2-b]pyridine-3-carboxamide]
13 | < 1 | COc1cc(-c2ccnc3c(C(=O)N[C@H]4CC[C@@H](NC(C)=O)CC4)c(C)[nH]c23)c(OCC2CC2)cc1F [Example E67, N-[cis-4-(Acetylamino)cyclohexyl]-7-[2-(cyclopropylmethoxy)-4-fluoro-5-methoxyphenyl]-2-methyl-1H-pyrrolo[3,2-b]pyridine-3-carboxamide]
14 | 1 to 10 | Cc1[nH]c2c(-c3ccc(F)cc3OCC3CC3)ccnc2c1C(=O)N[C@H]1CC[C@H](NC(=O)CO)CC1 [Example F08, 7-[2-(Cyclopropylmethoxy)-4-fluorophenyl]-N-{trans-4-[(hydroxyacetyl)amino]cyclohexyl}-2-methyl-1H-pyrrolo[3,2-b]pyridine-3-carboxamide]
15 | < 1 | COc1ccc(OCC2CC2)c(-c2ccnc3c(C(=O)N[C@H]4CC[C@H](NC(=O)[C@H](C)O)CC4)c(C)[nH]c23)c1 [Example F29, 7-[2-(Cyclopropylmethoxy)-5-methoxyphenyl]-N-(trans-4-{[abs.(2S)-2-hydroxypropanoyl]amino}cyclohexyl)-2-methyl-1H-pyrrolo[3,2-b]pyridine-3-carboxamide]
16 | 1 to 10 | COCC(=O)N1CCC(NC(=O)c2c(C)[nH]c3c(-c4cc(F)ccc4OCC4CC4)ccnc23)CC1 [Example E21, 7-[2-(Cyclopropylmethoxy)-5-fluorophenyl]-N-[1-(methoxyacetyl)piperidin-4-yl]-2-methyl-1H-pyrrolo[3,2-b]pyridine-3-carboxamide]
17 | 1 to 10 | Cc1[nH]c2c(-c3cc(F)ccc3OCC3CC3)ccnc2c1C(=O)NC1CCN(C(=O)CO)CC1 [Example F12, 7-[2-(Cyclopropylmethoxy)-5-fluorophenyl]-N-[1-(hydroxyacetyl)piperidin-4-yl]-2-methyl-1H-pyrrolo[3,2-b]pyridine-3-carboxamide]
18 | 1 to 10 | CCC(=O)N1CC[C@@H](NC(=O)c2c(C)[nH]c3c(-c4cc(F)ccc4OCC4CC4)ccnc23)[C@H](O)C1 (relative stereo) [Example E29, 7-[2-(Cyclopropylmethoxy)-5-fluorophenyl]-N-[(3R*,4R*)-3-hydroxy-1-propanoylpiperidin-4-yl]-2-methyl-1H-pyrrolo[3,2-b]pyridine-3-carboxamide]
19 | 1 to 10 | COCC(=O)N[C@H]1CC[C@@H](NC(=O)c2c(C)[nH]c3c(-c4cc(C)ccc4OCC4CC4)ccnc23)CC1 [Example E60, 7-[2-(Cyclopropylmethoxy)-5-methylphenyl]-N-{cis-4-[(methoxyacetyl)amino]cyclohexyl}-2-methyl-1H-pyrrolo[3,2-b]pyridine-3-carboxamide]
20 | 1 to 10 | Cc1[nH]c2c(-c3ccc(F)cc3OCC3CC3)ccnc2c1C(=O)N[C@H]1CC[C@@H](NC(=O)CO)CC1 [Example F10, 7-[2-(Cyclopropylmethoxy)-4-fluorophenyl]-N-{cis-4-[(hydroxyacetyl)amino]cyclohexyl}-2-methyl-1H-pyrrolo[3,2-b]pyridine-3-carboxamide]
21 | < 1 | COCC(=O)N[C@H]1CC[C@H](NC(=O)c2c(C)[nH]c3c(-c4cc(F)c(OC)cc4OCC4CC4)ccnc23)CC1 [Example E81, 7-[2-(Cyclopropylmethoxy)-5-fluoro-4-methoxyphenyl]-N-{trans-4-[(methoxyacetyl)amino]cyclohexyl}-2-methyl-1H-pyrrolo[3,2-b]pyridine-3-carboxamide]
22 | < 1 | CC(=O)N[C@H]1CC[C@@H](NC(=O)c2c(C)[nH]c3c(-c4c(OCC5CC5)ccc5c4OCO5)ccnc23)CC1 [Example E06, N-(cis-4-acetamidocyclohexyl)-7-[5-(cyclopropylmethoxy)-1,3-benzodioxol-4-yl]-2-methyl-1H-pyrrolo[3,2-b]pyridine-3-carboxamide]
